We go through 45 compounds from patent US20170333591A9, “ABSORBENT ARTICLE COMPRISING MALODOR REDUCTION COMPOSITIONS” (The Procter & Gamble Company, priority 2014, published 2017).

The first data set can be described thus: Log of liquid dish neat product liquid-air partition coefficient.
Settings: not given
It counts as physicochemical.
`COc1ccc(COC=O)cc1` [Material 665]: the “Comment Code: Log of liquid dish neat product liquid-air partition coefficient” value (“Comment Code: Log” below) is reported as “K (Log of liquid dish neat product liquid-air partition coefficient greater than or equal to 7)”.

Consider `COC1(C)CCC23CC1C(C)(C)C2CCC3C` (stereo not shown) [Material 565], for which the “Comment Code: Log” value is on record as “K (Log of liquid dish neat product liquid-air partition coefficient greater than or equal to 7)”.

Take `C[C@@H]1CCC=C2CC[C@@H](C(C)(C)O)C[C@]21C` [Material 1107]: the “Comment Code: Log” value is listed as “K (Log of liquid dish neat product liquid-air partition coefficient greater than or equal to 7)”.

As to `COC1CC2CC1C1CC(C=O)CC21` (stereo not shown) [Material 1027], the “Comment Code: Log” value is “K (Log of liquid dish neat product liquid-air partition coefficient greater than or equal to 7)”.

`CCC(=O)OC1CC2CC1C1CC=CC21` (stereo not shown) [Material 919]: the “Comment Code: Log” value was “K (Log of liquid dish neat product liquid-air partition coefficient greater than or equal to 7)”.

As for `CC=Cc1ccc(OCC)c(O)c1` [Material 1112], the “Comment Code: Log” value was “K (Log of liquid dish neat product liquid-air partition coefficient greater than or equal to 7)”.

In the case of `CC(C)(C)C(=O)OC1CC2CC1C1CC=CC21` (stereo not shown) [Material 978], the “Comment Code: Log” value was “K (Log of liquid dish neat product liquid-air partition coefficient greater than or equal to 7)”.

Regarding `N#CC=Cc1ccccc1` [Material 549], the “Comment Code: Log” value is recorded as “K (Log of liquid dish neat product liquid-air partition coefficient greater than or equal to 7)”.

Turning to `CCC(=O)OC(C)c1ccccc1` (stereo not shown) [Material 96], the “Comment Code: Log” value was “K (Log of liquid dish neat product liquid-air partition coefficient greater than or equal to 7)”.

For the compound `CC1C(C)(C)C2CCC3CC(C)(C)OC3C2C1(C)C` (stereo not shown) [Material 679], the “Comment Code: Log” value is “K (Log of liquid dish neat product liquid-air partition coefficient greater than or equal to 7)”.

For the compound `COc1ccccc1C=CC=O` [Material 26], the “Comment Code: Log” value is “K (Log of liquid dish neat product liquid-air partition coefficient greater than or equal to 7)”.

With `CC1=CCC(C23CCCC(C)(C2)OC3)C1(C)C` (stereo not shown) [Material 570], the “Comment Code: Log” value was “K (Log of liquid dish neat product liquid-air partition coefficient greater than or equal to 7)”.

The same data set, now with this note: code letter within the Comment Code cell.
On to `c1ccc2c(c1)CC1COCOC21` (stereo not shown) [Material 247], for which the “Log of liquid dish neat product liquid-air partition coefficient (Comment Code K/L)” value (“Log … (Comment Code K/L)” for short) was “K (Log of liquid dish neat product liquid-air partition coefficient greater than or equal to 7)”.

As for `CC(C)C1OC2(CCCC2)OCC1(C)C` (stereo not shown) [Material 25], the “Log … (Comment Code K/L)” value is listed as “K (Log of liquid dish neat product liquid-air partition coefficient greater than or equal to 7)”.

As to `CCCCCCCCCC(=O)OCC` [Material 397], the “Log … (Comment Code K/L)” value was “K (Log of liquid dish neat product liquid-air partition coefficient greater than or equal to 7)”.

As for `CC1CCC(C(C)(C)O)CC2=C1CCC2C` (stereo not shown) [Material 292], the “Log … (Comment Code K/L)” value is recorded as “K (Log of liquid dish neat product liquid-air partition coefficient greater than or equal to 7)”.

Take `CCCCCCC1C(=O)CCC1C(=O)OC` (stereo not shown) [Material 450]: the “Log … (Comment Code K/L)” value is listed as “K (Log of liquid dish neat product liquid-air partition coefficient greater than or equal to 7)”.

For the compound `COC1(OC)CCCCCCCCCCC1` [Material 10], the “Log … (Comment Code K/L)” value is recorded as “K (Log of liquid dish neat product liquid-air partition coefficient greater than or equal to 7)”.

With `C=C(C)C1CC=C(C)C(O)C1` (stereo not shown) [Material 531], the “Log … (Comment Code K/L)” value is “K (Log of liquid dish neat product liquid-air partition coefficient greater than or equal to 7)”.

Regarding `CC1(O)CCOC2(CCCCC2)C1` (stereo not shown) [Material 16], the “Log … (Comment Code K/L)” value was “K (Log of liquid dish neat product liquid-air partition coefficient greater than or equal to 7)”.

Take `CCCCCCCCCCCCCC#N` [Material 38]: the “Log … (Comment Code K/L)” value is recorded as “K (Log of liquid dish neat product liquid-air partition coefficient greater than or equal to 7)”.

As for `CCCCCCCCOC(=O)c1ccco1` [Material 28], the “Log … (Comment Code K/L)” value is listed as “K (Log of liquid dish neat product liquid-air partition coefficient greater than or equal to 7)”.

Take `C=CC1(C)CCC(C(C)(C)O)O1` (stereo not shown) [Material 156]: the “Log … (Comment Code K/L)” value is “K (Log of liquid dish neat product liquid-air partition coefficient greater than or equal to 7)”.

With `C=CCCCCCCCC=CCC#N` [Material 137], the “Log … (Comment Code K/L)” value is given as “K (Log of liquid dish neat product liquid-air partition coefficient greater than or equal to 7)”.

For the compound `C=CC(C)CCC=C(C)CCC=O` (racemic) [Material 358], the “Log … (Comment Code K/L)” value is “K (Log of liquid dish neat product liquid-air partition coefficient greater than or equal to 7)”.

`CC1/C=C/CCCCCCCCCCC(=O)C1` (stereo not shown) [Material 80]: the “Log … (Comment Code K/L)” value is recorded as “K (Log of liquid dish neat product liquid-air partition coefficient greater than or equal to 7)”.

As for `CC(C)C(=O)OCC=Cc1ccccc1` [Material 550], the “Log … (Comment Code K/L)” value is “K (Log of liquid dish neat product liquid-air partition coefficient greater than or equal to 7)”.

Take `C=CC(O)(CC)CCC=C(C)C` (stereo not shown) [Material 390]: the “Log … (Comment Code K/L)” value was “K (Log of liquid dish neat product liquid-air partition coefficient greater than or equal to 7)”.

As for `C=CC(=C)CCCC(C)(C)OC(C)=O` [Material 35], the “Log … (Comment Code K/L)” value is given as “K (Log of liquid dish neat product liquid-air partition coefficient greater than or equal to 7)”.

As to `COC(=O)C=Cc1ccccc1` [Material 117], the “Log … (Comment Code K/L)” value is “K (Log of liquid dish neat product liquid-air partition coefficient greater than or equal to 7)”.

`C=C(C)C1CC=C(C)C(O)C1` (stereo not shown) [Material 170]: the “Log … (Comment Code K/L)” value is “K (Log of liquid dish neat product liquid-air partition coefficient greater than or equal to 7)”.

The data set is the same for the next values; noted with them: code letters K/L of the Comment Code.
As to `CC(=O)C=CC12OC1(C)CCCC2(C)C` (stereo not shown) [Material 636], the “Log of liquid dish neat product liquid-air partition coefficient (Comment Code)” value (shortened to “Log … (Comment Code)”) was “K (Log of liquid dish neat product liquid-air partition coefficient greater than or equal to 7)”.

For `COC1(C)CCC23CC1C(C)(C)C2CCC3C` (stereo not shown) [Material 565], the “Log … (Comment Code)” value is listed as “K (Log of liquid dish neat product liquid-air partition coefficient greater than or equal to 7)”.

As to `C[C@@H]1CCC=C2CC[C@@H](C(C)(C)O)C[C@]21C` [Material 1107], the “Log … (Comment Code)” value is recorded as “K (Log of liquid dish neat product liquid-air partition coefficient greater than or equal to 7)”.

In the case of `CCC=C(C)C(O)CCCCC` (stereo not shown) [Material 1104], the “Log … (Comment Code)” value is given as “K (Log of liquid dish neat product liquid-air partition coefficient greater than or equal to 7)”.

In the case of `CC1=CCC(/C=C/C(C)(C)C(C)O)C1(C)C` (stereo not shown) [Material 985], the “Log … (Comment Code)” value is “K (Log of liquid dish neat product liquid-air partition coefficient greater than or equal to 7)”.

In the case of `COC1CC2CC1C1CC(C=O)CC21` (stereo not shown) [Material 1027], the “Log … (Comment Code)” value is on record as “K (Log of liquid dish neat product liquid-air partition coefficient greater than or equal to 7)”.

As for `CCC(=O)OC1CC2CC1C1CC=CC21` (stereo not shown) [Material 919], the “Log … (Comment Code)” value is recorded as “K (Log of liquid dish neat product liquid-air partition coefficient greater than or equal to 7)”.

As to `CCCCCCCCC=CC#N` [Material 827], the “Log … (Comment Code)” value is “K (Log of liquid dish neat product liquid-air partition coefficient greater than or equal to 7)”.

In the case of `C=C(C)C1CCC(C)(OC(C)=O)CC1` (stereo not shown) [Material 611], the “Log … (Comment Code)” value is “K (Log of liquid dish neat product liquid-air partition coefficient greater than or equal to 7)”.

Take `CC(C)=CCCC(C)(O)C1CC=C(C)CC1` (stereo not shown) [Material 718]: the “Log … (Comment Code)” value is on record as “K (Log of liquid dish neat product liquid-air partition coefficient greater than or equal to 7)”.

As to `CC(C)(C)C(=O)OC1CC2CC1C1CC=CC21` (stereo not shown) [Material 978], the “Log … (Comment Code)” value is “K (Log of liquid dish neat product liquid-air partition coefficient greater than or equal to 7)”.

`Cc1ccc(CC(C)C=O)cc1` (stereo not shown) [Material 742]: the “Log … (Comment Code)” value is reported as “K (Log of liquid dish neat product liquid-air partition coefficient greater than or equal to 7)”.

With `CCC(C)(O)CCc1ccccc1` (stereo not shown) [Material 731], the “Log … (Comment Code)” value is on record as “K (Log of liquid dish neat product liquid-air partition coefficient greater than or equal to 7)”.

Consider `CCC=C1OC(=O)c2ccccc21` [Material 805], for which the “Log … (Comment Code)” value is reported as “K (Log of liquid dish neat product liquid-air partition coefficient greater than or equal to 7)”.

Turning to `CCCCC/C=C/C=C\C(=O)OCC` [Material 942], the “Log … (Comment Code)” value is reported as “K (Log of liquid dish neat product liquid-air partition coefficient greater than or equal to 7)”.

As for `CCCCCCCCCCCCCO` [Material 1090], the “Log … (Comment Code)” value is given as “K (Log of liquid dish neat product liquid-air partition coefficient greater than or equal to 7)”.

Consider `CC1=CCCC(C)=CCC(C)(C)C=CC1` [Material 706], for which the “Log … (Comment Code)” value is on record as “K (Log of liquid dish neat product liquid-air partition coefficient greater than or equal to 7)”.

As to `C=C(C)C1CC=C(C=O)CC1` (stereo not shown) [Material 946], the “Log … (Comment Code)” value was “K (Log of liquid dish neat product liquid-air partition coefficient greater than or equal to 7)”.

For the compound `CC1C(C)(C)C2CCC3CC(C)(C)OC3C2C1(C)C` (stereo not shown) [Material 679], the “Log … (Comment Code)” value is given as “K (Log of liquid dish neat product liquid-air partition coefficient greater than or equal to 7)”.

Turning to `CCCCOC(=O)C(C)OC(=O)CCC` (stereo not shown) [Material 595], the “Log … (Comment Code)” value is “K (Log of liquid dish neat product liquid-air partition coefficient greater than or equal to 7)”.

Take `CC1=CCC(C23CCCC(C)(C2)OC3)C1(C)C` (stereo not shown) [Material 570]: the “Log … (Comment Code)” value is given as “K (Log of liquid dish neat product liquid-air partition coefficient greater than or equal to 7)”.
